For 8 molecules, IC50 results are on record in publication PMC8898348 (Journal of the Indian Chemical Society, 2022).

Each structure is given as a SMILES string. Where two headings read alike, the source gives them in different places. Where a SMILES comes first, the peptide text is derived from it. The star is where a group is joined. MeOSuc = COC(=O)CCC(=O)*; CH2Cl = ClC*

The test system of experiment [1] is SPC-A-1, SK-LU-1, and 95D human lung cancer cell lines. In words: MTT cytotoxicity assay, three lung cancer cell lines together. The experiment is classed as cell-based. Particulars: read-out: IC50 growth inhibition in the three lung cancer cells.
Another experiment relates to 95D. In words: MTT cytotoxicity assay, 95D. Particulars: Homo sapiens, read-out: 95D IC50. The experiment is classed as cell-based. (Tetrazolium assays rely on reduction of a dye to a coloured formazan, in cell work by metabolically active cells.)
For a further experiment, the system named is SK-LU-1. In words: MTT cytotoxicity assay, SK-LU-1. The class given is cell-based. Particulars: Homo sapiens, SK-LU-1, read-out: SK-LU-1 IC50.
The next experiment concerns the target Elastase (Sus scrofa, UniProt P00772). In words: elastase inhibitory activity, spectrophotometric. The experiment is classed as biochemical.
The next experiment addresses Collagenase. Description: collagenase enzyme inhibition, spectrophotometric. The experiment is classed as biochemical. Particulars: read-out: Collagenase IC50.

Chain of Elastase (P00772 27-266): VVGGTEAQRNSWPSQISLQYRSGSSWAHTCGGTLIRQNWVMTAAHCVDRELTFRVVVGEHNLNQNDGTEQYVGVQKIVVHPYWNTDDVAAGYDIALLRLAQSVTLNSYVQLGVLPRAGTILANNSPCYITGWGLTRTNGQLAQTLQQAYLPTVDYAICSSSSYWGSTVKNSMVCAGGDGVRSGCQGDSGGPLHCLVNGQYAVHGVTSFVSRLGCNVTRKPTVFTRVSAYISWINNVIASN

A word on the IC50: it is the point on the concentration scale where inhibition reaches its midpoint. In the case of `COc1cccc2c1C(=O)c1c(O)c3c(c(O)c1C2=O)C[C@@](O)(C(=O)CO)C[C@@H]3O[C@H]1C[C@H](N)[C@H](O)[C@H](C)O1` [Doxorubicin, reference compound], the IC50 in experiment [1] was 25 to 30 µM; with 95D it was 25 µM; in the experiment with SK-LU-1 it was 25 µM.

As to `OC[C@H](Cc1cccc(O)c1)[C@H](CO)Cc1cccc(O)c1` [Enterodiol], the IC50 at Elastase worked out at 11.1 ± 1.87 µM; in the experiment on 95D, 64.1 µM; on Collagenase, 104 ± 11.3 µM; in the experiment on SK-LU-1 it was 67.3 µM.

As to `O=C1OC[C@H](Cc2cccc(O)c2)[C@H]1Cc1cccc(O)c1` [Enterolactone], the IC50 against Elastase amounted to 22.5 ± 4.08 µM; in the experiment with 95D it was 41.1 µM; on Collagenase, 9.66 ± 1.52 µM; in the experiment with SK-LU-1, 45.8 µM.

Consider `COc1ccc(/C=C/C(=O)c2c(O)cc(OC)cc2OC)cc1` [Flavokawain A], for which the IC50 on Elastase was 27.3 ± 4.67 µM; in experiment [1], 12 to 30 µM; in the experiment on 95D, 22.4 µM; at Collagenase, 66.3 ± 7.95 µM; in the experiment with SK-LU-1, 23.3 µM.

For `COc1cc(O)c(C(=O)/C=C/c2ccccc2)c(OC)c1` [Flavokawain B], the IC50 against Elastase is 20.1 ± 2.36 µM; in experiment [1] it was 12 to 30 µM; with 95D, 32.6 µM; on Collagenase, 71.1 ± 16 µM; with SK-LU-1 it was 29.3 µM.

Take `COc1cc(O)c(C(=O)/C=C/c2ccc(O)cc2)c(OC)c1` [Flavokawain C]: the IC50 is 17.6 ± 1.68 µM at Elastase; 12 to 30 µM in experiment [1]; 21 µM with 95D; 62.1 ± 9.43 µM on Collagenase; 22.7 µM in the experiment with SK-LU-1.

As to `COC(=O)CCC(=O)N[C@@H](C)C(=O)N[C@@H](C)C(=O)N1CCC[C@H]1C(=O)N[C@H](C(=O)CCl)C(C)C` [N-(Methoxysuccinyl)-Ala-Ala-Pro-Val-chloromethyl ketone, reference compound] (MeOSuc-AAPV-CH2Cl), the IC50 at Elastase (read-out: Elastase IC50) came out at 30.6 ± 3.25 µM.

Take `CC(C)C[C@H](NP(=O)(O)O[C@@H]1O[C@@H](C)[C@H](O)[C@@H](O)[C@H]1O)C(=O)N[C@@H](Cc1c[nH]c2ccccc12)C(=O)O` [Phosphoramidon, reference compound]: the half-inhibitory concentration (IC50) at Collagenase was 101 ± 14.8 µM.
